Experimental data as given in ChEMBL document CHEMBL5465560, “Selectivity Literature for EUbOPEN Chemogenomic Library” (2024).

Assays:
[1] = target: T1, Inhibitor of nuclear factor kappa-B kinase subunit beta (Homo sapiens) (UniProt O14920)
T1 sequence (whole entry): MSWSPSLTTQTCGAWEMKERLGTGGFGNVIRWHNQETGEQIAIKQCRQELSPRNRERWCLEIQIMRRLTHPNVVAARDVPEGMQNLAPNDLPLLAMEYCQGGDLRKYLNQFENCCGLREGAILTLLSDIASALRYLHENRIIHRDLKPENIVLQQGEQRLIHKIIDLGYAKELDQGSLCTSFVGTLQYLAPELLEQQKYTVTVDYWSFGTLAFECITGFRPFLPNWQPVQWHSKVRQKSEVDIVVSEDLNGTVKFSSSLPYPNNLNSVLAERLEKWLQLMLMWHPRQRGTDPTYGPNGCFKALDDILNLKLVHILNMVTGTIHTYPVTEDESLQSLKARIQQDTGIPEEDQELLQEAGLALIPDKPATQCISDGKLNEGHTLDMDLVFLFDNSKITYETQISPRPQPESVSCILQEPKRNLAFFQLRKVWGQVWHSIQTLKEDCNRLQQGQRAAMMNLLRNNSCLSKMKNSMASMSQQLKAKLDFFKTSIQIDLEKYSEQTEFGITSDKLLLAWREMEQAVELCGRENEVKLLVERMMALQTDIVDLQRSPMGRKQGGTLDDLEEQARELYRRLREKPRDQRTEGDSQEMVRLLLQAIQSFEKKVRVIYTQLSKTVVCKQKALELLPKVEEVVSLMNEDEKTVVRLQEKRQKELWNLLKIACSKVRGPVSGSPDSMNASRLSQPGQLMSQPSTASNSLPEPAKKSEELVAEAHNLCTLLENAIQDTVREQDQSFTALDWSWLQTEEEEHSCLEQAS

[2] = target: T2, Phosphatidylinositol 5-phosphate 4-kinase type-2 gamma (Homo sapiens) (UniProt Q8TBX8); test: Selectivity interaction (Ambit KINOMEscan and KiNATiv profiling in Jurkat cells) EUB0000090b PIP4K2C; format: cell-based; settings: at 1 µM
T2 sequence (whole entry): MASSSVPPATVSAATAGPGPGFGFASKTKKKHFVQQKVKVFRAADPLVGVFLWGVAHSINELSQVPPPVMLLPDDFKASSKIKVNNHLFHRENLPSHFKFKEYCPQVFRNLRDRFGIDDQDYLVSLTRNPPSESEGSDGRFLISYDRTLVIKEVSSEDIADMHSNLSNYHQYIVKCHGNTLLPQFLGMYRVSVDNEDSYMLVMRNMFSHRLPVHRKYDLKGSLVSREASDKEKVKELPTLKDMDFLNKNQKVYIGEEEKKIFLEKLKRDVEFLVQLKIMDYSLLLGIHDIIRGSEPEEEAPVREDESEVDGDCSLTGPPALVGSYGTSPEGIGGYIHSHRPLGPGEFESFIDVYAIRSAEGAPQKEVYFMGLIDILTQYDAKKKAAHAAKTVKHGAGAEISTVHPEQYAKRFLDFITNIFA

[3] = target: T3, Mitogen-activated protein kinase 13 (Homo sapiens) (UniProt O15264); test: Selectivity interaction (Ambit KINOMEscan and KiNATiv profiling in Jurkat cells) EUB0000090b MAPK13; format: cell-based; settings: at 1 µM
T3 sequence (whole entry): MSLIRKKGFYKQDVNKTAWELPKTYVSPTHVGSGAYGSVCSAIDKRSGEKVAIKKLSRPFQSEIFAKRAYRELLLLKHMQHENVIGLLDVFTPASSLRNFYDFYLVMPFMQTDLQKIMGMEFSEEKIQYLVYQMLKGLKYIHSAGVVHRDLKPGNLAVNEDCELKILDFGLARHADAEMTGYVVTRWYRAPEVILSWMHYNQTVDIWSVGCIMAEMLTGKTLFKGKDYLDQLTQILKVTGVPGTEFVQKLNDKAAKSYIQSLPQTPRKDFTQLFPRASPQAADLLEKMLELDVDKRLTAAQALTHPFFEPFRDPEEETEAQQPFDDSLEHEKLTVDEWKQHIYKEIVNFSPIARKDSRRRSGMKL

[4] = target: T4, Aurora kinase A (Homo sapiens) (UniProt O14965); test: Selectivity interaction (ActivX KiNativ screen (kinase selectivity in THP-1 cell lysates)) EUB0000639a STK6; format: subcellular; settings: lysate, at 0.04 µM
T4 sequence (whole entry): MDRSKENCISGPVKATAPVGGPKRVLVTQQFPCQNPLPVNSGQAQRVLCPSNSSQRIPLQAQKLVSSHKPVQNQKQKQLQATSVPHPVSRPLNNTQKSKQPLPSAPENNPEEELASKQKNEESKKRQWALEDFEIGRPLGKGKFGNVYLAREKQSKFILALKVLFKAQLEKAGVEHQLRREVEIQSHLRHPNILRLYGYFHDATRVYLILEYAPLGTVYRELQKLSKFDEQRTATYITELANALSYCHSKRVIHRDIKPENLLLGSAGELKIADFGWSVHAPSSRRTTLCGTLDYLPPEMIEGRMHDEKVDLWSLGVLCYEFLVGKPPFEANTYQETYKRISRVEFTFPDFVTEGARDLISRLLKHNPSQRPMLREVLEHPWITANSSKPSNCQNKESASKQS

[5] = target: T5, Activin receptor type-1 (Homo sapiens) (UniProt Q04771); test: Selectivity interaction (KinomeScan (DiscoverX)) EUB0000092b ACVR1; settings: at 10 µM
T5 sequence (whole entry): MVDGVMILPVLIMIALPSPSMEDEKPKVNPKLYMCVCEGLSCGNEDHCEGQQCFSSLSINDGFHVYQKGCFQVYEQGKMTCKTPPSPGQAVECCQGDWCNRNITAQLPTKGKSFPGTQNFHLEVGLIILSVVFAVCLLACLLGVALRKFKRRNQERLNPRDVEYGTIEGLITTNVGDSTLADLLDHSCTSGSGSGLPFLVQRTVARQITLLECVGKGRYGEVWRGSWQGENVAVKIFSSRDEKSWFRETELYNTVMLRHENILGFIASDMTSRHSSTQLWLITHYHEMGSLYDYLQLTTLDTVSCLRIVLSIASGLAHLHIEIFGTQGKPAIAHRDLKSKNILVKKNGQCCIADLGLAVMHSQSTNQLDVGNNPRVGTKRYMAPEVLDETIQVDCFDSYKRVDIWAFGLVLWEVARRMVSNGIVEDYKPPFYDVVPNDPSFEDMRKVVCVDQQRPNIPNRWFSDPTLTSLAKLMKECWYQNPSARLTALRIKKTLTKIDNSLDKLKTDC

[6] = target: Serine/threonine-protein kinase 25 (Homo sapiens) (UniProt O00506); test: Selectivity interaction (KinomeScan (DiscoverX)) EUB0001619a STK25; settings: at 1 µM
[7] = target: BDNF/NT-3 growth factors receptor (Homo sapiens) (UniProt Q16620); test: Selectivity interaction (KinomeScan (DiscoverX)) EUB0000618a NTRK2; settings: at 10 µM
[8] = target: Interleukin-1 receptor-associated kinase 1 (Homo sapiens) (UniProt P51617); test: Selectivity interaction (KinomeScan (DiscoverX)) EUB0000618a IRAK1; settings: at 10 µM
[9] = target: Casein kinase II subunit alpha' (Homo sapiens) (UniProt P19784); test: Selectivity interaction (Kinase panel (DSF assay)) EUB0001559a CSNK2A2
Casein kinase II subunit alpha' (Homo sapiens), sequence (P19784 whole entry, looked up): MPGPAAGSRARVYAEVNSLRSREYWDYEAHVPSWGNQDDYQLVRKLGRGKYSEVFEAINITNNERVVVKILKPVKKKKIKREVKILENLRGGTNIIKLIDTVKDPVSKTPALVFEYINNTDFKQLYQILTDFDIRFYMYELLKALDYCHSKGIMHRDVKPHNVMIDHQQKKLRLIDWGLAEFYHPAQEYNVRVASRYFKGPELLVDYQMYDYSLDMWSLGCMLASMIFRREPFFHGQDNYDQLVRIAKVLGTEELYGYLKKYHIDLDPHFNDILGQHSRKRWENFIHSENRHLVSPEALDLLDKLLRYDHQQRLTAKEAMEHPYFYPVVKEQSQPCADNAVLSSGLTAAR

Serine/threonine-protein kinase 25 (Homo sapiens), sequence (O00506 whole entry, looked up): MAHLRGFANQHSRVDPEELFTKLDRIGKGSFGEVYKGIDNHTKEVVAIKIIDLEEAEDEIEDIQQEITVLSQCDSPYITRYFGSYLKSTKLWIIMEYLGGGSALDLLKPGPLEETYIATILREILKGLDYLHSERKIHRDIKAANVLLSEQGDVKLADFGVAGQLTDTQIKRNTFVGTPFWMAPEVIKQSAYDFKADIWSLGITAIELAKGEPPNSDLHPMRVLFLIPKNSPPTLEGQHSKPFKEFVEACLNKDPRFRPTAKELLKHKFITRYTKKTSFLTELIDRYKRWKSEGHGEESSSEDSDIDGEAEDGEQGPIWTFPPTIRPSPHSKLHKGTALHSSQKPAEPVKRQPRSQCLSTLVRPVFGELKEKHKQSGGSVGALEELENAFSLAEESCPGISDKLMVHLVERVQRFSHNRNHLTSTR
BDNF/NT-3 growth factors receptor (Homo sapiens), sequence (Q16620 32-822 limits assumed): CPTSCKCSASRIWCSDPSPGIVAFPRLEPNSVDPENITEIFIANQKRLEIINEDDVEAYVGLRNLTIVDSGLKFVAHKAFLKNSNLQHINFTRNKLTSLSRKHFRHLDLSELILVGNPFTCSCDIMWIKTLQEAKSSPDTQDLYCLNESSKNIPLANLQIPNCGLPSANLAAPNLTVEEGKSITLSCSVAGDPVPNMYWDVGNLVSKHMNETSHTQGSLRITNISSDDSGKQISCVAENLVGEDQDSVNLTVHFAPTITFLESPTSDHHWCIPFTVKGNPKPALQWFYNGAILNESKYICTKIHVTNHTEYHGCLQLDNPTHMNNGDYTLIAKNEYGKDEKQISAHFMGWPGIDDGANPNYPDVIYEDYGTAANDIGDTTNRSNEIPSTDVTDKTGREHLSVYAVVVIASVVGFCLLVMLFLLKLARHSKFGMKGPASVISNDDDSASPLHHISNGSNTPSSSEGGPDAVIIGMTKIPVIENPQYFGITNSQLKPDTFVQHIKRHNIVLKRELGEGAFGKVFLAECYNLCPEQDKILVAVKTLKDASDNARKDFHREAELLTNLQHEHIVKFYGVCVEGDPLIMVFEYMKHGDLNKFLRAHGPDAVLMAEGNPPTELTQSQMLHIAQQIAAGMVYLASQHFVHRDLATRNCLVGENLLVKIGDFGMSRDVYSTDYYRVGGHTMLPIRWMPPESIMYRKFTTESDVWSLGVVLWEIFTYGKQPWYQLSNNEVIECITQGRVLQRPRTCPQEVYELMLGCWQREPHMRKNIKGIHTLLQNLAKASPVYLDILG
Interleukin-1 receptor-associated kinase 1 (Homo sapiens), sequence (P51617 whole entry, looked up): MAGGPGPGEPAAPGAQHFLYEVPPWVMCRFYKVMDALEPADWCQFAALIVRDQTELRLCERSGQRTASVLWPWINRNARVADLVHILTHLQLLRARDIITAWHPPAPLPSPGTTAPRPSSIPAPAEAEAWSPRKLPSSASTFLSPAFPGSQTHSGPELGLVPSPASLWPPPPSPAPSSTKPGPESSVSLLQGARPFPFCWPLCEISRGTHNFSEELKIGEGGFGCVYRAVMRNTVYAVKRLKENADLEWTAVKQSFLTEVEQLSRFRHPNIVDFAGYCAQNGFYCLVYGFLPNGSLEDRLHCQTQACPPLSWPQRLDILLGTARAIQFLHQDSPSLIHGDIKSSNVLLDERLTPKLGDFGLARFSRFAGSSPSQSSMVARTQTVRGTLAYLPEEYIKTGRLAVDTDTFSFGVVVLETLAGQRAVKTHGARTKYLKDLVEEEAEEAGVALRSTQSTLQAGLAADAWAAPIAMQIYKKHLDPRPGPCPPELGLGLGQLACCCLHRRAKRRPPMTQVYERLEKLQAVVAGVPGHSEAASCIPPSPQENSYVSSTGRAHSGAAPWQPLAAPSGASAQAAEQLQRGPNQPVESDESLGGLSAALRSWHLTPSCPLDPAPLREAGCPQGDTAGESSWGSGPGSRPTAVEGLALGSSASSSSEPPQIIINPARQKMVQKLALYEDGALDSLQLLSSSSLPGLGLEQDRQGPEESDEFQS

How did the % of inhibition [1] turn out when Cc1cnc(Nc2ccc(F)cc2Cl)nc1-c1c[nH]c(C(=O)N[C@H](CO)c2cccc(Cl)c2)c1 was run?
Its % of inhibition is 8%.

Which % of control [2] does the source give for CN(C)C/C=C/C(=O)Nc1ccc(C(=O)N2CCCC(Nc3ncc(Cl)c(-c4c[nH]c5ccccc45)n3)C2)cc1 (centres undefined) here?
Its % of control is 91%.

And the % of control [3]?
Its % of control is 85%.

CC[C@@H]1[C@H](F)C(=O)N[C@@H]1COc1nccc2cc(C(N)=O)c(OC)cc12 [ZIMLOVISERTIB] was tested. Which % of inhibition [4] did it give?
The % of inhibition was -6.4%.

With CCC(=O)N1CCN(c2ccc(-n3c(=O)ccc4cnc5ccc(-c6cnc7ccccc7c6)cc5c43)cc2C(F)(F)F)CC1 as the compound, how does the % of control [5] read?
Its % of control is 28%.

N#Cc1cccc(-c2c[nH]c3ncnc(N4CCOCC4)c23)c1 was tested. Which % of control [6] did it give?
Its % of control is 28%.

How did the % of control [7] turn out when O[C@H]1CC[C@H](Nc2ncc3nc(Nc4c(F)cc(F)cc4F)n([C@H]4CCOC4)c3n2)CC1 was run?
Its % of control is 79%.

And the % of control [8]?
The % of control was 38%.

CN(C(=O)c1cnn2cccnc12)c1cc2c(cc1N1CCOCC1)C(=O)N(C[C@@H](F)C(C)(C)O)C2 was tested. Which dTM [9] did it give?
Its dTM is 1.4 K.
